Reference: US20250099448A1, “HETEROCYCLIC COMPOUNDS” (Hoffmann-La Roche Inc., priority 2022, published 2025)

Each compound was assayed against T1, MAGL protein (Homo sapiens, UniProt Q99685) (assay: 2-AG assay: MAGL inhibitory activity by hydrolysis of 2-arachidonoylglycerol to arachidonic acid, followed by mass spectrometry). Conditions: 8 μM 2-arachidonoylglycerol, 15 min preincubation, 30 min reaction at RT, RapidFire MS readout.
T1 sequence (Q99685 1-303): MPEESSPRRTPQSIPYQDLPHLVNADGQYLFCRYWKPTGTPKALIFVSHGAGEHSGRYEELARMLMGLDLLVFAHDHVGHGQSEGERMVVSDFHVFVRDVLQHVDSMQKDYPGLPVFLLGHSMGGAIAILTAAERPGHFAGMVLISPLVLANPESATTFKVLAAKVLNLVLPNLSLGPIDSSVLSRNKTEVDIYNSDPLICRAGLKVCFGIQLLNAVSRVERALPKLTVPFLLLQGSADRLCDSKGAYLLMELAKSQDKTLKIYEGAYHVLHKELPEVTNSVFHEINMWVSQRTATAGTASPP
Format: biochemical
Procedure, shortened: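 Activity was measured by RapidFire SPE–triple-quad MS as the ratio of arachidonic acid to d8-arachidonic acid after 2-AG hydrolysis (8 μM substrate, 30 min, RT, acetonitrile quench). Compounds, tested from 12.5 μM down to […], were first preincubated 15 min with MAGL in TRIS/EDTA/Tween-20 buffer containing 2.5% DMSO.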
Work on `O=C(N1CC(n2cc(OCC(F)(F)F)cn2)C1)N1CC2(CC(c3nnc(C4CC4)[nH]3)C2)C1` [compound 207] yielded an IC50 of 60.3 nM. `O=C(N1CC(c2cnc(OCC3(C(F)(F)F)CC3)cn2)C1)N1CC2(CC(c3nc(C4CC4)n[nH]3)C2)C1` [compound 469] gave an IC50 of 1.12 nM. `CS(=O)(=O)c1cc(C(F)(F)F)ccc1CC1CC2(C1)CN(C(=O)N1CC3(CC(c4nnc(C5CC5)[nH]4)C3)C1)C2` [compound 39] was tested, and the IC50 was 0.15 nM. Compound `O=C(N1CC2(CC(Cc3ccc(OC(F)(F)F)cc3)C2)C1)N1CC2(CC(c3nc(C4CC4)n[nH]3)C2)C1` [compound 857] has an IC50 of 0.02 nM. `O=C(N1CC2(CC(c3nnc(C4CC4)[nH]3)C2)C1)N1CC2(C1)CN(c1cncc(F)c1)C2` [compound 936] was tested, and the IC50 was 138 nM. `O=C(N1CC2(CC(Cc3ccc(C(F)(F)F)cn3)C2)C1)N1CC2(CC(c3nnc(C4(O)CC4)[nH]3)C2)C1` [compound 111] was tested, and the IC50 was 0.6 nM. `O=C(N1CC2(CC(Cc3ccc(F)cc3F)C2)C1)N1CC2(CC(c3nc(C4CC(F)(F)C4)n[nH]3)C2)C1` [compound 586] was tested, and the IC50 was 5.47 nM. `O=C(N1CC2(CC(Cc3cn4cc(C(F)(F)F)nc4cn3)C2)C1)N1CC2(CC(c3nc(C4CC4)n[nH]3)C2)C1` [compound 991] showed an IC50 of 2.03 nM. In the case of `O=C(N1CC(c2ccc(S(=O)(=O)c3ccccc3)cc2)C1)N1CC2(CC(c3nnc(C4CC4)[nH]3)C2)C1` [compound 371], the IC50 is reported as 0.4 nM. `O=C(N1CC2(CC(c3nc(C4(O)CC4)n[nH]3)C2)C1)N1CC2(CC[C@@H](Cc3cccc(S(=O)(=O)C(F)(F)F)c3)C2)C1` [compound 726] gave an IC50 of 0.1 nM. Compound `O=C(N1CC2(CC(c3nnc(C4CC4)[nH]3)C2)C1)C12C3C4C1C1C2C3C41Nc1cnc(C(F)(F)F)cn1` (centres unmarked) [Example 811, [6-(5-cyclopropyl-4H-1,2,4-triazol-3-yl)-2-azaspiro[3.3]heptan-2-yl]-[4-[[5-(trifluoromethyl)pyrazin-2-yl]amino]cuban-1-yl]methanone] has an IC50 of 0.43 nM. For `O=C(N1CC(C23CC(c4cncc(F)c4)(C2)C3)C1)N1CC2(CC(c3nc(C4CC4)n[nH]3)C2)C1` [compound 760], the IC50 was 6.09 nM. In the case of `O=C(N1CC2(CC(c3nnc(C4CC4)[nH]3)C2)C1)N1CC2(C1)CN(S(=O)(=O)c1ccc(C(F)(F)F)cc1)C2` [compound 103], the IC50 is reported as 25 nM. `O=C(N1CC2(CC(Cc3ccc(OC(F)(F)F)nc3)C2)C1)N1CC2(CC(c3nc(C4CC(F)(F)C4)n[nH]3)C2)C1` [compound 566] showed an IC50 of 14.7 nM. In the case of `O=C(N1CC2(CC(Cc3cc(C(F)F)[nH]n3)C2)C1)N1CC2(CC(c3nc(C4CC4)n[nH]3)C2)C1` [compound 610], the IC50 is reported as 0.4 nM. For `O=C(N1CC2(CC(c3nc(C4(O)CC4)n[nH]3)C2)C1)N1CC2(CN(Cc3ccc(S(=O)(=O)C(F)(F)F)cc3F)C2)C1` [compound 451], the IC50 was 1.52 nM. Compound `O=C(N1CC(C23CC(c4cc(C5CC5)n[nH]4)(C2)C3)C1)N1CC2(CC(c3nc(C4CC(F)(F)C4)n[nH]3)C2)C1` [compound 702] has an IC50 of 255 nM. Compound `O=C(N1CC2(CC(c3nc(C4CC4)n[nH]3)C2)C1)N1CC2(CN(Cc3ccc(S(=O)(=O)C(F)(F)F)cc3F)C2)C1` [compound 554] has an IC50 of 0.56 nM. For `O=C(N1CC2(CC(c3nnc(C4CC4)[nH]3)C2)C1)N1CC2(CN(Cc3cnc(C(F)(F)F)cn3)C2)C1` [compound 164], the IC50 was 18.3 nM. Compound `CS(=O)(=O)c1cc(CC2CC3(C2)CN(C(=O)N2CC4(CC(c5nnc(C6CC6)[nH]5)C4)C2)C3)ccc1C(F)(F)F` [compound 41] has an IC50 of 0.24 nM. For `O=C(N1CC2(CC(c3nc(C4CC4)n[nH]3)C2)C1)N1CC2(CN(Cc3cnc(C(F)(F)F)o3)C2)C1` [compound 642], the IC50 was 27.5 nM. `Cc1nc(C)n(-c2ccc(C3CN(C(=O)N4CC5(CC(c6nnc(C7CC7)[nH]6)C5)C4)C3)cc2)n1` [compound 841] gave an IC50 of 10.6 nM. Compound `O=C(N1CC2(CCN(c3ccc(Cl)cc3F)CC2)C1)N1CC2(CC(c3nnc(C4CC4)[nH]3)C2)C1` [compound 283] has an IC50 of 0.88 nM. For `O=C(N1CC2(CC(Cc3ncc(F)cc3F)C2)C1)N1CC2(CC(c3nc(C(F)(F)F)n[nH]3)C2)C1` [compound 819], the IC50 was 6.59 nM. Compound `O=C(N1CC(Oc2ccc(C3CC3)cc2)C1)N1CC2(CC(c3nnc(C4(O)CC4)[nH]3)C2)C1` [compound 312] has an IC50 of 2.97 nM. `O=C(N1CC(c2ccc(N3CC(O)(C(F)(F)F)C3)nc2)C1)N1CC2(CC(c3nc(C4CC(F)(F)C4)n[nH]3)C2)C1` [compound 646] was tested, and the IC50 was 424 nM. Work on `CS(=O)(=O)c1ccc(CC2CC3(C2)CN(C(=O)N2CC4(CC(c5nc(C(F)(F)F)n[nH]5)C4)C2)C3)cc1` [compound 791] yielded an IC50 of 17.6 nM. `CC1(O)CN(c2ccc(C3CN(C(=O)N4CC5(CC(c6nnc(C7CC7)[nH]6)C5)C4)C3)cn2)C1` [compound 82] was tested, and the IC50 was 20.5 nM. `O=C(N1CC2(CC(Cn3ccc(C(F)(F)F)cc3=O)C2)C1)N1CC2(CC(c3nc(C4CC4)n[nH]3)C2)C1` [compound 766] was tested, and the IC50 was 2.83 nM. `O=C(N1CCC(COc2cc(F)cc(C(F)(F)F)c2)CC1)N1CC2(CC(c3nc(C4(O)CC4)n[nH]3)C2)C1` [Example 921, [4-[[3-fluoro-5-(trifluoromethyl)phenoxy]methyl]piperidino]-[6-[3-(1-hydroxycyclopropyl)-1H-1,2,4-triazol-5-yl]-2-azaspiro[3.3]heptan-2-yl]methanone] showed an IC50 of 31.5 nM. `O=C(N1CC(NS(=O)(=O)c2cccc(C(F)(F)F)c2)C1)N1CC2(CC(c3nnc(C4CC4)[nH]3)C2)C1` [compound 202] gave an IC50 of 332 nM. `N=[S@@](=O)(c1cccc(CC2CC3(C2)CN(C(=O)N2CC4(CC(c5nnc(C6CC6)[nH]5)C4)C2)C3)c1)C(F)(F)F` (single isomer, unassigned) [compound 127] showed an IC50 of 0.06 nM. `Cn1ncc(OC2CC3(C2)CN(C(=O)N2CC4(CC(c5nc(C6CC6)n[nH]5)C4)C2)C3)c1C(F)(F)F` [compound 592] showed an IC50 of 1.38 nM. For `O=C(N1CC2(CCC(NS(=O)(=O)C3CCC(F)(F)CC3)CC2)C1)N1CC2(CC(c3nnc(C4CC4)[nH]3)C2)C1` [compound 358], the IC50 was 26.3 nM. Work on `O=C(N1CC2(CC(NC(=O)C3(C(F)(F)F)CC3)C2)C1)N1CC2(CC(c3nnc(C4CC4)[nH]3)C2)C1` [compound 222] yielded an IC50 of 40.7 nM. Compound `O=C(N1CC(c2ccc(N3CC4(CCCO4)C3)nc2)C1)N1CC2(CC(c3nnc(C4CC4)[nH]3)C2)C1` [compound 293] has an IC50 of 11.1 nM. `CC(F)(F)c1noc(CN2CC3(C2)CN(C(=O)N2CC4(CC(c5nc(C6CC6)n[nH]5)C4)C2)C3)n1` [compound 743] gave an IC50 of 13.2 nM. With `O=C(N1CC2(CC(c3nnc(C4(O)CC4)[nH]3)C2)C1)N1CC2(C1)CN(S(=O)(=O)c1ccc(OC(F)(F)F)cc1)C2` [compound 92] the IC50 was 44 nM. `O=C(N1CC2(CC(Cc3ccc4nnc(C(F)(F)F)n4c3)C2)C1)N1CC2(CC(c3nc(C4CC4)n[nH]3)C2)C1` [compound 995] gave an IC50 of 2.74 nM. For `O=C(N1CC(OCc2cccc(S(=O)(=O)C(F)(F)F)c2)C1)N1CC2(CC(c3nnc(C4CC4)[nH]3)C2)C1` [compound 321], the IC50 was 10.8 nM. In the case of `O=C(N1CC(CNS(=O)(=O)c2ccc(C(F)(F)F)cc2)C1)N1CC2(CC(c3nnc(C4CC4)[nH]3)C2)C1` [compound 209], the IC50 is reported as 316 nM. `Cc1cc(C(F)(F)F)nn1CC1CC2(C1)CN(C(=O)N1CC3(CC(c4nc(C5CC5)n[nH]4)C3)C1)C2` [compound 445] showed an IC50 of 0.24 nM. `O=C(N1CC(c2ccc(C3(C(F)(F)F)CC3)cc2)C1)N1CC2(CC(c3nnc(C4CC4)[nH]3)C2)C1` [compound 226] was tested, and the IC50 was 0.11 nM. Work on `Cn1nc(CC2CC3(C2)CN(C(=O)N2CC4(CC(c5nc(C6(O)CC6)n[nH]5)C4)C2)C3)cc1C(F)(F)F` [compound 491] yielded an IC50 of 0.34 nM. In the case of `O=C(N1CC2(CCN(Cc3ncc(C(F)F)s3)CC2)C1)N1CC2(CC(c3nc(C4CC4)n[nH]3)C2)C1` [compound 507], the IC50 is reported as 5.84 nM. Work on `N#Cc1cc(Cl)cnc1OCC1CCN(C(=O)N2CC3(CC(c4nc(C5CC5)n[nH]4)C3)C2)CC1` [Example 908] yielded an IC50 of 56.6 nM. In the case of `CS(=O)(=O)c1ccc(C23CC(C4CN(C(=O)N5CC6(CC(c7nc(C8CC8)n[nH]7)C6)C5)C4)(C2)C3)cc1` [compound 786], the IC50 is reported as 8.01 nM. With `N#Cc1cc(C(F)(F)F)ncc1CC1CC2(C1)CN(C(=O)N1CC3(CC(c4nnc(C5(O)CC5)[nH]4)C3)C1)C2` [compound 433] the IC50 was 0.9 nM. `O=C(N1CC2(CC(c3ccc(C(F)(F)F)nc3)C2)C1)N1CC2(CC(c3nc(C4(O)CC4)n[nH]3)C2)C1` [compound 829] was tested, and the IC50 was 38.4 nM. Work on `O=C(N1CC2(CC(Cc3cn(C4CC4)nc3C(F)(F)F)C2)C1)N1CC2(CC(c3nc(C4CC4)n[nH]3)C2)C1` [compound 405] yielded an IC50 of 0.57 nM. `O=C(N1CC(Oc2cnc(Cl)c(C3CC3)c2)C1)N1CC2(CC(c3nnc(C4CC4)[nH]3)C2)C1` [compound 328] was tested, and the IC50 was 35.4 nM. `N#Cc1ccc(OC2CC3(C2)CN(C(=O)N2CC4(CC(c5nc(C6CC6)n[nH]5)C4)C2)C3)cc1C(F)(F)F` [compound 605] was tested, and the IC50 was 0.86 nM. `Cc1nn(C)c(Cl)c1CN1CCN(C(=O)N2CC3(CC(c4nc(C5CC5)n[nH]4)C3)C2)CC1` [Example 881, [4-[(5-chloro-1,3-dimethyl-pyrazol-4-yl)methyl]piperazino]-[6-(3-cyclopropyl-1H-1,2,4-triazol-5-yl)-2-azaspiro[3.3]heptan-2-yl]methanone] gave an IC50 of 670 nM. For `O=C(N1CC2(CCC(S(=O)(=O)c3ccc(C(F)(F)F)cc3)CC2)C1)N1CC2(CC(c3nc(C4CC4)n[nH]3)C2)C1` [compound 723], the IC50 was 1.37 nM. `CS(=N)(=O)c1cccc(CC2CC3(C2)CN(C(=O)N2CC4(CC(c5nc(C6CC(F)(F)C6)n[nH]5)C4)C2)C3)c1` (centres unmarked) [compound 493] was tested, and the IC50 was 956 nM. Work on `N#Cc1ccc(CC2CC3(C2)CN(C(=O)N2CC4(CC(c5nc(C6CC6)n[nH]5)C4)C2)C3)c(F)c1` [compound 772] yielded an IC50 of 0.05 nM.
